In patent US8663639B2, “Formulations for treating ocular diseases and conditions” (Santen Pharmaceutical Co., Ltd., priority 2005, dated 2014):
Read-outs that look alike come from different tables or passages of the source.

Assay: Topical administration (eye drops) of formulation #340, rapamycin levels in blood, cornea, retina choroid, sclera and vitreous (Tables 3-6)
Assay type: in vivo
Conditions: rabbit, formulation #340 topical; for concentration at 8 day / concentration at 10 day / concentration at 12 day / concentration at 14 day: Group III (two drops once a day on both eyes for 6 days)
Method: Both eyes (or one eye depending on the study) of each animal received one or two drops (40 μl per drop) of the studied formulations using a calibrated pipette on day 0 (day of dosing).
For Tables 3-6, the solution of Example 46 (formulation #340) was administered two drops twice a day on both eyes, one time for Group I, two drops once a day on one eye, one time for Group II, and two drops once a day on both eyes for 6 days in Group III. In Group II, the right eye (OD) but not the left eye (OS) received eye drops. In a further study, one drop of the formulation #340 (40 μL containing 880 μg rapamycin) was administered on day zero.

## CO[C@H]1C[C@@H]2CC[C@@H](C)[C@@](O)(O2)C(=O)C(=O)N2CCCC[C@H]2C(=O)O[C@H]([C@H](C)C[C@@H]2CC[C@@H](O)[C@H](OC)C2)CC(=O)[C@H](C)/C=C(\C)[C@@H](O)[C@@H](OC)C(=O)[C@H](C)C[C@H](C)/C=C/C=C/C=C/1C [Rapamycin, rapamycin]
sclera, 2 drops (40 μl per drop) on one eye (right eye, OD), Group II (two drops once a day on one eye, one time), OD, day 1, n = 1, read-out: Rapamycin level, sclera
  concentration at 1 day: 421 ng/g
sclera, 2 drops (40 μl per drop) on one eye (right eye, OD), Group II (two drops once a day on one eye, one time), OD, day 2, n = 1, read-out: Rapamycin level, sclera
  concentration at 2 day: 1350 ng/g
sclera, 2 drops (40 μl per drop) on one eye (right eye, OD), Group II (two drops once a day on one eye, one time), OD, day 3, n = 1, read-out: Rapamycin level, sclera
  concentration at 3 day: 541 ng/g
sclera, 2 drops (40 μl per drop) on one eye (right eye, OD), Group II (two drops once a day on one eye, one time), OS, day 1, n = 1, read-out: Rapamycin level, sclera
  concentration at 1 day: 34.2 ng/g
sclera, 2 drops (40 μl per drop) on one eye (right eye, OD), Group II (two drops once a day on one eye, one time), OS, day 2, n = 1, read-out: Rapamycin level, sclera
  concentration at 2 day: 144 ng/g
sclera, 2 drops (40 μl per drop) on one eye (right eye, OD), Group II (two drops once a day on one eye, one time), OS, day 3, n = 1, read-out: Rapamycin level, sclera
  concentration at 3 day: 104 ng/g
sclera, 2 drops (40 μl per drop) per eye, both eyes, day 8, n = 2, read-out: Rapamycin level, sclera
  concentration at 8 day: 895 ng/g
sclera, 2 drops (40 μl per drop) per eye, both eyes, day 10, n = 2, read-out: Rapamycin level, sclera
  concentration at 10 day: 613 ng/g
sclera, 2 drops (40 μl per drop) per eye, both eyes, day 12, n = 2, read-out: Rapamycin level, sclera
  concentration at 12 day: 131 ng/g
sclera, 2 drops (40 μl per drop) per eye, both eyes, day 14, n = 2, read-out: Rapamycin level, sclera
  concentration at 14 day: 420 ng/g
sclera, 2 drops (40 μl per drop) per eye, both eyes, twice a day, Group I (two drops twice a day on both eyes, one time), day 1, n = 2, read-out: Rapamycin level, sclera
  concentration at 1 day: 90.8 ng/g
sclera, 2 drops (40 μl per drop) per eye, both eyes, twice a day, Group I (two drops twice a day on both eyes, one time), day 2, n = 2, read-out: Rapamycin level, sclera
  concentration at 2 day: 751 ng/g
sclera, 2 drops (40 μl per drop) per eye, both eyes, twice a day, Group I (two drops twice a day on both eyes, one time), day 3, n = 2, read-out: Rapamycin level, sclera
  concentration at 3 day: 351 ng/g
vitreous, 2 drops (40 μl per drop) on one eye (right eye, OD), Group II (two drops once a day on one eye, one time), OD, day 1, n = 1, read-out: Rapamycin level, vitreous
  concentration at 1 day: 2.06 ng/mL
vitreous, 2 drops (40 μl per drop) on one eye (right eye, OD), Group II (two drops once a day on one eye, one time), OD, day 2, n = 1, read-out: Rapamycin level, vitreous
  concentration at 2 day: 5.01 ng/mL
vitreous, 2 drops (40 μl per drop) on one eye (right eye, OD), Group II (two drops once a day on one eye, one time), OD, day 3, n = 1, read-out: Rapamycin level, vitreous
  concentration at 3 day: 3.96 ng/mL
vitreous, 2 drops (40 μl per drop) on one eye (right eye, OD), Group II (two drops once a day on one eye, one time), OS, day 1, n = 1, read-out: Rapamycin level, vitreous
  concentration at 1 day: 1 ng/mL
vitreous, 2 drops (40 μl per drop) on one eye (right eye, OD), Group II (two drops once a day on one eye, one time), OS, day 2, n = 1, read-out: Rapamycin level, vitreous
  concentration at 2 day: 2.95 ng/mL
vitreous, 2 drops (40 μl per drop) on one eye (right eye, OD), Group II (two drops once a day on one eye, one time), OS, day 3, n = 1, read-out: Rapamycin level, vitreous
  concentration at 3 day: 4 ng/mL
vitreous, 2 drops (40 μl per drop) per eye, both eyes, day 8, n = 2, read-out: Rapamycin level, vitreous
  concentration at 8 day: 19.7 ng/mL
vitreous, 2 drops (40 μl per drop) per eye, both eyes, day 10, n = 2, read-out: Rapamycin level, vitreous
  concentration at 10 day: 7.9 ng/mL
vitreous, 2 drops (40 μl per drop) per eye, both eyes, day 12, n = 2, read-out: Rapamycin level, vitreous
  concentration at 12 day: 1.46 ng/mL
vitreous, 2 drops (40 μl per drop) per eye, both eyes, day 14, n = 2, read-out: Rapamycin level, vitreous
  concentration at 14 day: 5.66 ng/mL
vitreous, 2 drops (40 μl per drop) per eye, both eyes, twice a day, Group I (two drops twice a day on both eyes, one time), day 1, n = 2, read-out: Rapamycin level, vitreous
  concentration at 1 day: 1.24 ng/mL
vitreous, 2 drops (40 μl per drop) per eye, both eyes, twice a day, Group I (two drops twice a day on both eyes, one time), day 2, n = 2, read-out: Rapamycin level, vitreous
  concentration at 2 day: 5.41 ng/mL
vitreous, 2 drops (40 μl per drop) per eye, both eyes, twice a day, Group I (two drops twice a day on both eyes, one time), day 3, n = 2, read-out: Rapamycin level, vitreous
  concentration at 3 day: 3.03 ng/mL
